IC50 data for ten compounds are collected here from patent US9522914B2, “Azole derivative” (TAISHO PHARMACEUTICAL CO., LTD, priority 2011, dated 2016).

Experiment [1] has as its target T1, Human V1b receptor (Homo sapiens (Human), UniProt P47901). Put plainly: Measurement of V1b Receptor Antagonistic Activity (AVP-induced Fluo-4 fluorescence in CHO cells, FDSS). Conditions: inhibition of the response to AVP 2.5 nmol/L, CHO cells stably expressing human V1b receptor. The format is cell-based. As for the experimental part:
Measurement of V1b Receptor Antagonistic Activity
CHO cells (ATCC) so modified as to express human V1b receptor in a stable manner were cultured in Ham's F-12 medium (containing 10% FBS and 0.5 mg/mL Geneticin). On the day before the test, seeding was conducted at a density of 20,000 cells/well in a 96-well poly-D-lysine coated black plate. On the day of the test, the culture medium was removed, and a loading solution (1×HBSS, 10 mmol/L HEPES, 0.1% bovine serum albumin, 1.25 mmol/L Probenecid, 0.02% Pluronic F-127, 1.5 μmol/L Fluo-4-AM, pH 7.4) was added to each well, followed by incubation in a CO2 incubator for an hour. After the incubation, the loading solution was removed. A test solution (1×HBSS, 10 mmol/L HEPES, 0.1% bovine serum albumin, 1.25 mmol/L Probenecid, pH 7.4) containing any one of test compounds was added to wells, followed by incubation in a CO2 incubator for 30 minutes. The test compound was serially diluted with DMSO so that it would have final concentrations of 0.1 nmol/L to […] at the time of assaying. After the incubation, fluorescence intensity levels were measured and AVP added by means of FDSS (Hamamatsu Photonics K.K.); AVP was added to give a final concentration of 2.5 nmol/L at the time of assaying. […] The fluorescence level in a well to which neither test compound nor AVP was added was defined as 0%, and the fluorescence level in a well to which only AVP was added and no test compound was added was defined as 100%. A dose-response curve was plotted from fluorescence levels after the addition of AVP in the presence of a test compound at various concentrations, and the 50% inhibitory concentration (IC50 value) of the compound was calculated.

Experiment [2] has as its target T1, Human V1b receptor. The experiment in a line: Binding Test for V1b Receptor ([3H]AVP, crude membrane preparation of 293FT cells). Conditions: inhibition of [3H]AVP binding (0.4 to 1 nmol/L), room temperature, 60 minutes. The procedure, abridged:
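Crude membranes from 293FT cells transiently expressing human V1b, incubated with [3H]AVP (0.4 to 1 nmol/L) and compound (0.01 nmol/L–1 μmol/L final) in Tris pH 7.4 with MgCl2 and 0.1% BSA, 60 min at room temperature. Bound label collected by filtration. Nonspecific binding defined with unlabeled AVP; IC50 from dose-response curve.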

T1 sequence (P47901 whole entry): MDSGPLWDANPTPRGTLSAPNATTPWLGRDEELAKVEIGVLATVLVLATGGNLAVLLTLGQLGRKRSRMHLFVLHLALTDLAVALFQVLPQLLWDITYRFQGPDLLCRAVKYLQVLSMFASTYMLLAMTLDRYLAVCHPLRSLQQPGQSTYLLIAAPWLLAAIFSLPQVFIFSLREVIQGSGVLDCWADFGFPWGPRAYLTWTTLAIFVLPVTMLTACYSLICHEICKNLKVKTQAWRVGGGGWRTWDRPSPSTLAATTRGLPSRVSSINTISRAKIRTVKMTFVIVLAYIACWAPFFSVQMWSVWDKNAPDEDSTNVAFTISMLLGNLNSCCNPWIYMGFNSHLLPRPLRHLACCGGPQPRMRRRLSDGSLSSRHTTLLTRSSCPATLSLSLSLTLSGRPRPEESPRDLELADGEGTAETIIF

As for `CC(C)NC(=O)Cn1cc(-c2ccc(CCN3CCOCC3)cc2)nc1-c1cccc(Cl)c1` [Example A-02, 2-[2-(3-chlorophenyl)-4-{4-[2-(morpholin-4-yl)ethyl]phenyl}-1H-imidazol-1-yl]-N-(propan-2-yl)acetamide], the half-maximal inhibitory concentration (IC50) was found to be 3.2 nM against Human V1b receptor [1] and 3.7 nM on Human V1b receptor [2]. Taken in the same sequence, the figures for `CC(C)NC(=O)Cn1nc(-c2ccc(CCN3CCOCC3)cc2)nc1-c1cccc(Cl)c1` [Example B-02, 2-[5-(3-chlorophenyl)-3-{4-[2-(morpholin-4-yl)ethyl]phenyl}-1H-1,2,4-triazol-1-yl]-N-(propan-2-yl)acetamide] were 10 nM and 2.2 nM. As for `CC(C)NC(=O)Cc1oc(-c2ccc(CCN3CC4(COC4)C3)cc2)nc1-c1cccc(Cl)c1` [Example C-12, 2-[4-(3-chlorophenyl)-2-{4-[2-(2-oxa-6-azaspiro[3.3]hept-6-yl)ethyl]phenyl}-1,3-oxazol-5-yl]-N-(propan-2-yl)acetamide], the IC50 on Human V1b receptor [1] turned out to be 32 nM; at Human V1b receptor [2], 4.3 nM. Taken in the same sequence, the figures for `CC(C)NC(=O)Cc1nn(-c2ccc(CCN3CCOCC3)cc2)c(=O)n1-c1cccc(Cl)c1` [Example D-01, 2-[4-(3-chlorophenyl)-1-{4-[2-(morpholin-4-yl)ethyl]phenyl}-5-oxo-4,5-dihydro-1H-1,2,4-triazol-3-yl]-N-(propan-2-yl)acetamide] were 21 nM and 15 nM. Taken in the same sequence, the figures for `CC(C)(C)NC(=O)Cc1nn(-c2ccc(CCN3CCOCC3)cc2)c(=O)n1-c1cccc(Cl)c1` [Example D-13, N-tert-butyl-2-[4-(3-chlorophenyl)-1-{4-[2-(morpholin-4-yl)ethyl]phenyl}-5-oxo-4,5-dihydro-1H-1,2,4-triazol-3-yl]acetamide] were 13 nM and 3.5 nM. Taken in the same sequence, the figures for `CC(C)(C)NC(=O)Cc1nn(-c2ccc(CCN3C4CCC3COC4)cc2)c(=O)n1-c1cccc(Cl)c1` [Example D-14, N-tert-butyl-2-[4-(3-chlorophenyl)-1-{4-[2-(3-oxa-8-azabicyclo[3.2.1]oct-8-yl)ethyl]phenyl}-5-oxo-4,5-dihydro-1H-1,2,4-triazol-3-yl]acetamide] were 12 nM and 4.7 nM. Turning to `CC(C)NC(=O)Cc1nn(-c2ccc(CC(C)N3C4CCC3COC4)cc2)c(=O)n1-c1cccc(Cl)c1` [Example D-18, 2-[4-(3-chlorophenyl)-1-{4-[2-(3-oxa-8-azabicyclo[3.2.1]oct-8-yl)propyl]phenyl}-5-oxo-4,5-dihydro-1H-1,2,4-triazol-3-yl]-N-(propan-2-yl)acetamide], the figures for the 50% inhibitory concentration (IC50) against Human V1b receptor [1] and on Human V1b receptor [2] were 0.65 nM and 1.5 nM, respectively.

For `CC(C)NC(=O)Cc1nn(-c2ccc(CCN3CCC(C(F)(F)F)CC3)cc2)c(=O)n1-c1cccc(Cl)c1` [Example D-59, 2-[4-(3-chlorophenyl)-5-oxo-1-(4-{2-[4-(trifluoromethyl)piperidin-1-yl]ethyl}phenyl)-4,5-dihydro-1H-1,2,4-triazol-3-yl]-N-(propan-2-yl)acetamide], the IC50 at Human V1b receptor [2] was 100 to 1000 nM. Same read-out and setting: next, `CC(C)NC(=O)Cc1nn(-c2ccc(CCN3C(C)COCC3C)cc2)c(=O)n1-c1cccc(Cl)c1` [Example D-60, 2-[4-(3-chlorophenyl)-1-{4-[2-(3,5-dimethylmorpholin-4-yl)ethyl]phenyl}-5-oxo-4,5-dihydro-1H-1,2,4-triazol-3-yl]-N-(propan-2-yl)acetamide]: 100 to 1000 nM; `CC(C)NC(=O)Cc1nn(-c2ccc(CCN3CC4(COC4)C3)cc2)c(=O)n1-c1cccc(Cl)c1` [Example D-61, 2-[4-(3-chlorophenyl)-1-{4-[2-(2-oxa-6-azaspiro[3.3]hept-6-yl)ethyl]phenyl}-5-oxo-4,5-dihydro-1H-1,2,4-triazol-3-yl]-N-(propan-2-yl)acetamide]: 10 to 100 nM.
